Measurements published in patent US20150299188A1, “HETEROCYCLIC COMPOUND” (priority 2012, published 2015).

system: FLAP (5-lipoxygenase activating protein); assay: In vitro binding test: displacement of [3H]-7-chloro-3-(5-((3-fluoropyridin-2-yl)methoxy)-2-methylphenyl)-3,4-dihydroquinazolin-2(1H)-one from Sf9 microsome fractions; parameters: species or system human and mouse; conditions: Sf9 microsome fractions expressing FLAP; 100% = radioligand binding with 10 μM sodium 3-(3-(tert-butylsulfanyl)-1-(4-chlorobenzyl)-5-isopropyl-1H-indol-2-yl)-2,2-dimethylpropanoate, 0% = DMSO; test compound concentration not given
How it was run: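 Sf9 microsomes expressing human or mouse FLAP (2 μg/mL) preincubated with compound 10 min at room temperature, then 120 nM tritiated quinazolinone ligand added for 60 min; buffer 100 mM Tris-HCl pH 7.5 with NaCl, EDTA, DTT, glycerol, Tween20. Bound ligand filtered and counted by scintillation; 10 μM indole propanoate defines 100% inhibition, DMSO 0%.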

SMILES | inhibitory rate (%)
O=C(CCc1ccc(OCc2ncccc2F)cc1N1Cc2ccccc2NC1=O)NC1CC1 [Example 280, N-cyclopropyl-3-(4-((3-fluoropyridin-2-yl)methoxy)-2-(2-oxo-1,4-dihydroquinazolin-3(2H)-yl)phenyl)propanamide] | 62%
O=c1[nH]c2ccccc2c(=O)n1-c1cc(OCc2ncccc2F)ccc1F [Example 345, 3-(2-fluoro-5-((3-fluoropyridin-2-yl)methoxy)phenyl)quinazoline-2,4(1H,3H)-dione] | 114%
Cc1ccc(OCc2ccc(F)cc2F)cc1N1Cc2ccc(C(C)(C)O)cc2NC1=O [Example 201, 3-(5-((2,4-difluorobenzyl)oxy)-2-methylphenyl)-7-(2-hydroxypropan-2-yl)-3,4-dihydroquinazolin-2(1H)-one] | 104%
CC(C)(O)CNC(=O)c1cc2c(c(C3CC3)n1)CN(c1cc3c(cc1Cl)CCC(c1ncccc1F)O3)C(=O)N2 (stereo not drawn) [Example 114, 3-(6-chloro-2-(3-fluoropyridin-2-yl)-3,4-dihydro-2H-chromen-7-yl)-5-cyclopropyl-N-(2-hydroxy-2-methylpropyl)-2-oxo-1,2,3,4-tetrahydropyrido[4,3-d]pyrimidine-7-carboxamide] | 106%
Cc1ccc(OCc2ncccc2F)cc1-n1c(=O)[nH]c2cccc(C(F)(F)F)c2c1=O [Example 370, 3-(5-((3-fluoropyridin-2-yl)methoxy)-2-methylphenyl)-5-(trifluoromethyl)quinazoline-2,4(1H,3H)-dione] | 97%
Cc1ccc(OCc2ncccc2F)cc1-n1c(=O)[nH]c2cc(NS(=O)(=O)C3CC3)ccc2c1=O [Example 362, N-(3-(5-((3-fluoropyridin-2-yl)methoxy)-2-methylphenyl)-2,4-dioxo-1,2,3,4-tetrahydroquinazolin-7-yl)cyclopropanesulfonamide] | 110%
Cc1ccc(OCc2c(F)cccc2F)cc1-n1c(=O)[nH]c2nc(N3CCOCC3)sc2c1=O [Example 334, 6-(5-((2,6-difluorobenzyl)oxy)-2-methylphenyl)-2-(morpholin-4-yl)[1,3]thiazolo[4,5-d]pyrimidine-5,7(4H,6H)-dione] | 93%
O=C1Nc2ccccc2CN1c1cc(OCc2ncccn2)ccc1Br [Example 267, 3-(2-bromo-5-(pyrimidin-2-ylmethoxy)phenyl)-3,4-dihydroquinazolin-2(1H)-one] | 100%
Cc1ccc(OCc2ncccc2F)cc1N1Cc2c(Br)cncc2NC1=O [Example 315, 5-bromo-3-(5-((3-fluoropyridin-2-yl)methoxy)-2-methylphenyl)-3,4-dihydropyrido[3,4-d]pyrimidin-2(1H)-one] | 103%
O=C(NC1COC1)c1cc2c(c(C3CC3)n1)CN(c1cc3c(cc1Cl)CCC(c1ncccc1F)O3)C(=O)N2 (stereo not drawn) [Example 98, 3-(6-chloro-2-(3-fluoropyridin-2-yl)-3,4-dihydro-2H-chromen-7-yl)-5-cyclopropyl-N-(oxetan-3-yl)-2-oxo-1,2,3,4-tetrahydropyrido[4,3-d]pyrimidine-7-carboxamide] | 94%
Cc1ccc(OCc2ncccc2F)cc1-n1c(=O)[nH]c2cc(OCC3CC3)ccc2c1=O [Example 349, 7-(cyclopropylmethoxy)-3-(5-((3-fluoropyridin-2-yl)methoxy)-2-methylphenyl)quinazoline-2,4(1H,3H)-dione] | 105%
O=C1Nc2ccnc(Cl)c2CN1c1ccc2c(c1)OC(c1ncccc1F)CC2 (stereo not drawn) [Example 28, 5-chloro-3-(2-(3-fluoropyridin-2-yl)-3,4-dihydro-2H-chromen-7-yl)-3,4-dihydropyrido[4,3-d]pyrimidin-2(1H)-one] | 98%
CCOC(=O)c1nccc2c1CN(c1cc3c(cc1C)CCC(c1ncccc1F)O3)C(=O)N2 (stereo not drawn) [Example 30, ethyl 3-(2-(3-fluoropyridin-2-yl)-6-methyl-3,4-dihydro-2H-chromen-7-yl)-2-oxo-1,2,3,4-tetrahydropyrido[4,3-d]pyrimidine-5-carboxylate] | 105%
Cc1ccc(OCc2c(F)cccc2F)cc1N1Cc2ccc(-c3noc(=O)[nH]3)cc2NC1=O [Example 208, 3-(5-((2,6-difluorobenzyl)oxy)-2-methylphenyl)-7-(5-oxo-4,5-dihydro-1,2,4-oxadiazol-3-yl)-3,4-dihydroquinazolin-2(1H)-one] | 96%
Cc1cc2c(cc1N1Cc3c(C(F)(F)F)ncc(/C=C/C(=O)O)c3NC1=O)OC(c1ncccc1F)CC2 (stereo not drawn) [Example 92, (2E)-3-(3-(2-(3-fluoropyridin-2-yl)-6-methyl-3,4-dihydro-2H-chromen-7-yl)-2-oxo-5-(trifluoromethyl)-1,2,3,4-tetrahydropyrido[4,3-d]pyrimidine-8-yl)acrylic acid] | 106%
COC(=O)c1ccc2c(c1)NC(=O)N(c1cc(OCc3c(F)cccc3F)ccc1C(=O)OC)C2 [Example 176, methyl 3-(5-((2,6-difluorobenzyl)oxy)-2-(methoxycarbonyl)phenyl)-2-oxo-1,2,3,4-tetrahydroquinazoline-7-carboxylate] | 95%
O=C1Nc2cc(CO)ccc2CN1c1cc(OCc2c(F)cccc2F)ccc1C(F)(F)F [Example 239, 3-(5-((2,6-difluorobenzyl)oxy)-2-(trifluoromethyl)phenyl)-7-(hydroxymethyl)-3,4-dihydroquinazolin-2(1H)-one] | 86%
COCCOc1ccc2c(=O)n(-c3cc(OCc4ncccc4F)ccc3C)c(=O)[nH]c2c1 [Example 356, 3-(5-((3-fluoropyridin-2-yl)methoxy)-2-methylphenyl)-7-(2-methoxyethoxy)quinazoline-2,4(1H,3H)-dione] | 102%
Cc1ccc(OCc2ncccc2F)cc1N1Cc2ccc(C(=O)NC(C)C)cc2NC1=O [Example 270, 3-(5-((3-fluoropyridin-2-yl)methoxy)-2-methylphenyl)-N-isopropyl-2-oxo-1,2,3,4-tetrahydroquinazoline-7-carboxamide] | 104%
Cc1ccc(OCc2ncccc2F)cc1N1Cc2c(ccnc2Cl)NC1=O [Example 279, 5-chloro-3-(5-((3-fluoropyridin-2-yl)methoxy)-2-methylphenyl)-3,4-dihydropyrido[4,3-d]pyrimidin-2(1H)-one] | 103%

Now from value to compound:

inhibitory rate (%) | SMILES
105% | O=C1Nc2nccc(C(F)(F)F)c2CN1c1cc2c(cc1Cl)CCC(c1ncccc1F)O2 (stereo not drawn) [Example 57, 3-(6-chloro-2-(3-fluoropyridin-2-yl)-3,4-dihydro-2H-chromen-7-yl)-5-(trifluoromethyl)-3,4-dihydropyrido[2,3-d]pyrimidin-2(1H)-one]
105% | Cc1cc2c(cc1N1Cc3cc(Cl)cnc3NC1=O)OC(c1ncccc1F)CC2 (stereo not drawn) [Example 48, 6-chloro-3-(2-(3-fluoropyridin-2-yl)-6-methyl-3,4-dihydro-2H-chromen-7-yl)-3,4-dihydropyrido[2,3-d]pyrimidin-2(1H)-one]
101% | Cc1cc2c(cc1N1Cc3c(Cl)cc(C(=O)NC4CC4)cc3NC1=O)OC(c1ncccc1F)CC2 (stereo not drawn) [Example 82, 5-chloro-N-cyclopropyl-3-(2-(3-fluoropyridin-2-yl)-6-methyl-3,4-dihydro-2H-chromen-7-yl)-2-oxo-1,2,3,4-tetrahydroquinazoline-7-carboxamide]
111% | O=C1Nc2cc(-c3ncon3)nc(C3CC3)c2CN1c1cc2c(cc1Cl)CCC(c1ncccc1F)O2 (stereo not drawn) [Example 136, 3-(6-chloro-2-(3-fluoropyridin-2-yl)-3,4-dihydro-2H-chromen-7-yl)-5-cyclopropyl-7-(1,2,4-oxadiazol-3-yl)-3,4-dihydropyrido[4,3-d]pyrimidin-2(1H)-one]
95% | COc1ncc(Cl)c2c1NC(=O)N(c1cc3c(cc1C)CCC(c1ncccc1F)O3)C2 (stereo not drawn) [Example 156, 5-chloro-3-(2-(3-fluoropyridin-2-yl)-6-methyl-3,4-dihydro-2H-chromen-7-yl)-8-methoxy-3,4-dihydropyrido[3,4-d]pyrimidin-2(1H)-one]
102% | Cc1cc2c(cc1N1Cc3c(Cl)cnc(-c4c(C)nn(C)c4C)c3NC1=O)OC(c1ncccc1F)CC2 (single isomer, unassigned; (-)) [Example 15, (−)-5-chloro-3-(2-(3-fluoropyridin-2-yl)-6-methyl-3,4-dihydro-2H-chromen-7-yl)-8-(1,3,5-trimethyl-1H-pyrazol-4-yl)-3,4-dihydropyrido[3,4-d]pyrimidin-2(1H)-one]
110% | CCOC(=O)c1nccc2c1CN(c1cc3c(cc1Cl)CCC(c1ncccc1F)O3)C(=O)N2 (stereo not drawn) [Example 56, ethyl 3-(6-chloro-2-(3-fluoropyridin-2-yl)-3,4-dihydro-2H-chromen-7-yl)-2-oxo-1,2,3,4-tetrahydropyrido[4,3-d]pyrimidine-5-carboxylate]
103% | O=C1Nc2cncc(Cl)c2CN1c1cc2c(cc1Cl)CCC(c1ncccc1F)O2 (stereo not drawn) [Example 152, 5-chloro-3-(6-chloro-2-(3-fluoropyridin-2-yl)-3,4-dihydro-2H-chromen-7-yl)-3,4-dihydropyrido[3,4-d]pyrimidin-2(1H)-one]
92% | Cn1cc(-c2ncc(F)c3c2NC(=O)N(c2cc4c(cc2Cl)CCC(c2ncccc2F)O4)C3)cn1 (stereo not drawn) [Example 169, 3-(6-chloro-2-(3-fluoropyridin-2-yl)-3,4-dihydro-2H-chromen-7-yl)-5-fluoro-8-(1-methyl-1H-pyrazol-4-yl)-3,4-dihydropyrido[3,4-d]pyrimidin-2(1H)-one]
96% | Cc1cc2c(cc1N1Cc3c(ccnc3C(F)F)NC1=O)OC(c1ncccc1F)CC2 (stereo not drawn) [Example 24, 5-(difluoromethyl)-3-(2-(3-fluoropyridin-2-yl)-6-methyl-3,4-dihydro-2H-chromen-7-yl)-3,4-dihydropyrido[4,3-d]pyrimidin-2 (1H)-one]
